Data as given in PMC2950628 (Journal of medicinal chemistry, 2008).

Tested on: not listed separately
Assay: Solubility in D2O confirmed by NMR
Format: physicochemical
Conditions: not given

SMILES	solubility [µM]
CCCCC(=O)c1ccc(OC)c(OC2CCNCC2)c1 [5i, 1-[4-Methoxy-3-(piperidin-4-yloxy)phenyl]pentan-1-one]	≤ 800

Same assay, conditions: NMR study conditions

SMILES	solubility / behaviour in NMR sample
CCCC(=O)c1ccc(OC(F)F)c(Oc2ccccn2)c1 [5zi, 1-[4-Difluoromethoxy-3-(pyridin-2-yloxy)phenyl]butan-1-one]	solubility and nonspecific binding problems

Tested on: PDE4
Assay: not given
Conditions: Table 5, external test set s1–s9 from literature ref 19; cited from earlier work

SMILES	actual pIC50
COc1ccc(C(=O)Nc2ccccc2F)cc1OC1CCCC1 [s1]	4.97
COc1ccc(C(=O)Nc2ccccc2C(F)(F)F)cc1OC1CCCC1 [s2]	5.51
COc1ccc(C(=O)Nc2c(Cl)cccc2Cl)cc1OC1CCCC1 [s3]	7.55
COc1ccc(C(=O)Nc2c(F)cccc2F)cc1O [s4]	4.43
COc1ccc(C(=O)Nc2c(F)cccc2F)cc1OC1CCCCC1 [s5]	6.40
COc1ccc(C(=O)Nc2c(F)cccc2F)cc1OC1CCCC1 [s6]	7.15
COc1ccc(C(=O)Nc2ccccc2Cl)cc1OC [s7]	6.19
CCCOc1cc(C(=O)Nc2c(F)cccc2F)ccc1OC [s8]	5.80
COc1ccc(C(=S)Nc2c(Cl)cccc2Cl)cc1OC1CCCC1 [s9]	6.70
